Experimental data from the supplement of paper PMC5844555.

How the values were obtained:
Experiment in all cases: 3' UTR reporter interaction score (median-centred robust z-score of log2 firefly/Renilla activity); higher = less repression of the 3' UTR reporter
Conditions in all cases: HEK293T; 48 h
[1] = system: MYB
Outline: (§1)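 HEK293T cells were seeded at 10,000 per well in 96-well plates and co-transfected with DharmaFECT Duo, using 100 ng of a firefly luc2P reporter carrying the gene's 3' UTR, 20 ng of Renilla pRL-TK control and 2.5 pmol of miRNA mimic. Both luciferase activities were measured 48 h after transfection. The interaction score is the log-transformed firefly/Renilla ratio, converted to a per-plate robust z-score from the median and median absolute deviation and then median-centred per miRNA, with more negative values indicating interaction. Scores were averaged across at least two independent screens.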

[2] = system: HRAS
Outline: as §1

[3] = system: EZH2
Outline: as §1

[4] = system: FBXW7
Outline: as §1

[5] = system: ZEB2
Outline: as §1

[6] = system: MYT1L
Outline: as §1

[7] = system: NOTCH1
Outline: as §1

[8] = system: PHOX2B
Outline: as §1

[9] = system: MYCN
Outline: as §1

[10] = system: MYC
Outline: as §1

[11] = system: PHF6
Outline: as §1

[12] = system: BRCA2
Outline: as §1

[13] = system: TP53
Outline: as §1

[14] = system: RB1
Outline: as §1

Sequence	3' UTR reporter interaction score [1]	3' UTR reporter interaction score [2]	3' UTR reporter interaction score [3]	3' UTR reporter interaction score [4]	3' UTR reporter interaction score [5]	3' UTR reporter interaction score [6]	3' UTR reporter interaction score [7]	3' UTR reporter interaction score [8]	3' UTR reporter interaction score [9]	3' UTR reporter interaction score [10]	3' UTR reporter interaction score [11]	3' UTR reporter interaction score [12]	3' UTR reporter interaction score [13]	3' UTR reporter interaction score [14]
AAUCAUACAGGGACAUCCAGUU	0.0607	0.163	1.15	0.98	-0.725	0.474	-0.77	1.38	-0.994	0.273	-0.265	-0.401	-0.0235	-0.451
AAUCCUUGGAACCUAGGUGUGAGU	0.656	0.739	0.207	-0.342	-0.171	-4.11	-0.594	-0.851	0.204	1.33	0.0671	0.643	-0.232	-0.422
AAUCCUUUGUCCCUGGGUGAGA	-0.9	0.171	-0.257	0.455	0.439	-2.16	1.42	-0.304	0.972	0.916	-0.0711	0.853	-0.735	0.615
AAUGACACGAUCACUCCCGUUGA	-0.032	0.792	0.0535	0.139	0.878	-0.645	-1.98	-0.699	-0.341	0.235	-0.214	-1.49	0.759	-0.373
AAUGGCGCCACUAGGGUUGUGCA	0.208	-0.363	-0.534	-0.576	0.407	-0.00801	-0.589	1.04	0.439	-0.44	0.0523	-0.437	-0.436	-0.957
AAUUGCACUUUAGCAAUGGUGA	-0.332	-0.0471	-0.64	-4.25	-2.8	0.317	-0.161	0.339	0.969	0.3	2.86	1.07	-1.5	1.39
ACAAAGUGCUUCCCUUUAGAGU	0.129	0.332	-0.0342	0.628	0.377	-0.45	0.795	1.29	-0.183	-0.239	-0.537	-0.366	-0.415	-0.344
ACAAAGUGCUUCCCUUUAGAGUGU	0.347	0.36	-0.507	-0.043	-0.058	-0.448	0.486	1.18	-0.406	-0.0807	-0.618	-0.733	-0.281	0.896
ACAGCAGGCACAGACAGGCAG	-0.134	-0.306	-1.08	-0.152	1.63	-1.17	0.191	0.072	-0.201	-0.0632	1.37	-0.408	-0.292	0.215
